Literature values as cited in patent US20230111190A1, “ORAL COMPOSITIONS WITH IMPROVED BIOAVAILABILITY AND METHODS OF MAKING THE SAME” (Nulixir Inc., priority 2021, published 2023).

Test system: many strains of fungi
Conditions: not given

| Molecule | antifungal inhibitory activity |
| --- | --- |
| O=CC=Cc1ccccc1 [Cinnamaldehyde] | strong inhibitory activity |

Test system: not given
Conditions: one study estimated

| Molecule | affected by first-pass digestion [%] | bioavailability lost to hepatic metabolism | not absorbed and eliminated via feces [%] |
| --- | --- | --- | --- |
| COc1ccc2cc3[n+](cc2c1OC)CCc1cc2c(cc1-3)OCO2 [berberine] | 43 | minimal amount | 56 |

Test system: not given
Conditions: in vivo

| Molecule | absorbed via the lymphatic system [%] | absorbed via the portal vein [%] |
| --- | --- | --- |
| CCCCCCCC/C=C\CCCCCCCC(=O)O [oleic acid] | 85 | 15 |

Test system: not given
Conditions: dependence on water content

| Molecule | solubility in ethanol |
| --- | --- |
| COc1ccc2cc3[n+](cc2c1OC)CCc1cc2c(cc1-3)OCO2 [berberine] | decreases rapidly with water content |

Test system: not given
Conditions: n-octanol and water; categorization at pH = 7 unless stated otherwise

| Molecule | logP |
| --- | --- |
| hericerin | ~6.4 |
| N[C@@H](Cc1ccccc1)C(=O)O [L-phenylalanine] | ~-1.38 |
| CC(C)=C[C@@H]1CO[C@]23C[C@]4(CO2)[C@H](CC[C@@H]2[C@@]5(C)CC[C@H](O[C@@H]6OC[C@H](O)[C@H](O[C@@H]7O[C@H](CO)[C@@H](O)[C@H](O)[C@H]7O)[C@H]6O[C@@H]6O[C@@H](CO)[C@H](O)[C@H]6O)C(C)(C)[C@@H]5CC[C@]24C)[C@H]3[C@@]1(C)O [bacopasaponin C] | ~2 |
| herinacine A | ~2.5 |
| N[C@@H](Cc1c[nH]c2ccc(O)cc12)C(=O)O [5-HTP, 5-hydroxytryptophan] | ~-2 |
| O=C(/C=C/c1ccccc1)N1CCCC1 [(E)-1-cinnamoylpyrrolidine] | ~2.2 |
| bacopaside B | ~2.8 |
| CC(C)=C[C@H]1C[C@](C)(O)[C@H]2[C@H]3CC[C@@H]4[C@@]5(C)CC[C@H](O[C@@H]6O[C@H](CO)[C@@H](O)[C@H](O[C@@H]7O[C@H](CO)[C@@H](O)[C@H](O)[C@H]7O)[C@H]6O[C@@H]6O[C@@H](CO)[C@H](O)[C@H]6O)C(C)(C)[C@@H]5CC[C@@]4(C)[C@@]34CO[C@@]2(C4)O1 [bacoside A3] | ~2.1 |
| COc1cc2c(c(OC)c1OC)-c1c(cc(OC)c(OC)c1OC)C[C@](C)(O)[C@@H](C)C2 [(+)-schisandrin] | ~5 |
| O=C(O)c1cc(C(=O)O)c2c(n1)C(=O)C(=O)c1cc(C(=O)O)[nH]c1-2 [PQQ, pyrroloquinoline quinone] | ~0.4 |
| CC(=O)OC1C=CC(=O)N(C(=O)CCc2ccccc2)C1 (centres unmarked) [pipermethystine] | ~1.8 |
| Cn1c(=O)c2c(n(C)c1=O)n(C)c(=O)n2C [theacrine] | ~-1.06 |
| CC(C)=CCC[C@](C)(O[C@@H]1O[C@H](CO[C@@H]2O[C@H](CO)[C@@H](O)[C@H](O)[C@H]2O)[C@@H](O)[C@H](O)[C@H]1O)[C@H]1CC[C@]2(C)[C@@H]1[C@H](O)C[C@@H]1[C@@]3(C)CC[C@H](O[C@@H]4O[C@H](CO)[C@@H](O)[C@H](O)[C@H]4O[C@@H]4O[C@H](CO)[C@@H](O)[C@H](O)[C@H]4O)C(C)(C)[C@@H]3CC[C@]12C [ginsenoside rb1] | ~-1 |
| COc1nc2c(c(=O)n1C)n(C)c(=O)n2C [methylliberine] | ~-0.083 |
| (-)-schisandrin C | ~3.5 |
| COc1ccc(/C=C/c2cc(OC)cc(=O)o2)cc1 [yangonin] | ~2.8 |
| (R)-kawain | ~2.7 |
| COc1ccc([C@@]23C=CC(=O)C[C@@H]2N(C)CC3)cc1OC [mesembrenone] | ~1.3 |
| CC(C)=C[C@H]1C[C@](C)(O)[C@@H]2[C@H]3CC[C@@H]4[C@@]5(C)CC[C@H](O[C@@H]6OC[C@H](O)[C@H](O[C@@H]7O[C@H](CO)[C@@H](O)[C@H](O)[C@H]7O)[C@H]6O[C@@H]6O[C@@H](CO)[C@H](O)[C@H]6O)C(C)(C)[C@@H]5CC[C@@]4(C)[C@@]34CO[C@@]2(C4)O1 [bacopaside X] | ~2.2 |
| COC1=CC(=O)OC(/C=C/c2ccc(OC)cc2)C1 (centres unmarked) [5,6-dihydroyangonin] | ~2.5 |

| Molecule | logP |
| --- | --- |
| COc1cc([C@H]2Oc3cc(O)c4c(=O)c(O)c(-c5ccc(O)cc5)oc4c3O[C@@H]2CO)ccc1O [rhodiolin] | ~2 |
| CCNC(=O)CC[C@H](N)C(=O)O [L-theanine] | ~-3 |
| tortuosomine | ~3 |
| CC(/C=C/C=C(\C)C(=O)O[C@@H]1O[C@H](CO[C@@H]2O[C@H](CO)[C@@H](O)[C@H](O)[C@H]2O)[C@@H](O)[C@H](O)[C@H]1O)=C\C=C\C=C(C)\C=C\C=C(/C)C(=O)O[C@@H]1O[C@H](CO[C@@H]2O[C@H](CO)[C@@H](O)[C@H](O)[C@H]2O)[C@@H](O)[C@H](O)[C@H]1O [alpha-crocin] | ~-1.5 |
| COc1cc(O)c2c(=O)c(OC)c(-c3ccc(O)cc3)oc2c1 [kumatakenin] | ~2.5 |
| COc1ccc(CCc2cc(OC)cc(=O)o2)cc1 [7,8-dihydroyangonin] | ~2.9 |
| NCCCC(=O)O [GABA, gamma-aminobutyric acid] | ~-3 |
| COc1ccc(C23C=CC(O)CC2N(C)CC3)cc1OC (centres unmarked) [mesembrenol] | ~2.4 |
| schisandroside C | ~1.6 |
| Cn1cnc2c1c(=O)[nH]c(=O)n2C [theobromine] | ~-0.78 |
| COc1cc2c(c(OC)c1OC)-c1c(cc(OC)c(OC)c1OC)C[C@H](C)[C@H](C)C2 [(-)-schisandrin A] | ~3.6 |
| COc1cc2c(c(OC)c1OC)-c1c(cc(OC)c(OC)c1OC)C[C@](C)(O)[C@@H](C)C2 [schisandrol A] | ~3.4 |
| COC1=CC(=O)O[C@@H](CCc2ccc3c(c2)OCO3)C1 [7,8-dihydromethysticin] | ~2.2 |
| COc1cc(/C=C\c2ccc(OC)c(O)c2)oc(=O)c1 [11-hydroxyyangonin] | ~2.2 |
| CC(C)=CCC[C@](C)(O[C@@H]1O[C@H](CO)[C@@H](O)[C@H](O)[C@H]1O)[C@H]1CC[C@]2(C)[C@@H]1[C@H](O)C[C@@H]1[C@@]3(C)CC[C@H](O)C(C)(C)[C@@H]3[C@@H](O[C@@H]3O[C@H](CO)[C@@H](O)[C@H](O)[C@H]3O)C[C@]12C [ginsenoside rg1] | ~0.8 |
| N#C[C@@]1(O[C@@H]2O[C@H](CO)[C@@H](O)[C@H](O)[C@H]2O)C=C[C@@H](O)C1 [tetraphyllin B] | ~-2.5 |
| COc1cc2c(c(OC)c1OC)-c1c(cc3c(c1OC)OCO3)CC(C)C(C)C2 (single isomer, unassigned; (-)) [(-)-schisandrin B] | ~4 |
| COc1cc(/C=C/c2ccccc2)oc(=O)c1 [5,6-dehydrokawain] | ~2.9 |
| COc1ccc([C@@]23CCC(=O)C[C@@H]2N(C)CC3)cc1OC [mesembrine] | ~1.5 |
| CC1=C(CO)C(=O)O[C@@H]([C@@H](C)[C@H]2CC[C@H]3[C@@H]4C[C@H](Cl)[C@]5(O)[C@@H](O)C=CC(=O)[C@]5(C)[C@H]4CC[C@]23C)C1 [6a-chloro-5b-hydroxywithaferin A] | ~3.2 |
